Test results taken from patent publication US8859605B2, “Cysteine protease inhibitors” (Medivir UK Ltd, priority 2009, dated 2014).

Experiments:
human cathepsin S = target: T1, human cathepsin S (Homo sapiens, UniProt P25774); assay: Cathepsin S Ki determination (boc-Val-Leu-Lys-AMC fluorescent substrate); format: biochemical; conditions: baculovirus-expressed human cathepsin S, pH 6.5; read-out: Ki Cat. S
T1 construct: made in house; host or cells: baculovirus expression system
Procedure: Cathepsin S Ki Determination
The assay uses baculovirus-expressed human cathepsin S and the boc-Val-Leu-Lys-AMC fluorescent substrate available from Bachem in a 384 well plate format, in which 7 test compounds can be tested in parallel with a positive control comprising a known cathepsin S inhibitor comparator.
280 μL/well of 12.5% DMSO are added to rows B-H of two columns of a 96 deep well polypropylene plate. 70 μL/well of substrate is added to row A. 2×250 μL/well of assay buffer (100 mM Na phosphate, 100 mM NaCl, pH 6.5) is added to row A, mixed, and double diluted down the plate to row H.
100 μL/well of assay buffer is added to columns 2-5 and 7-12 of 4 rows of a 96 well V bottom polypropylene plate. 200 μL/well of assay buffer is added to columns 1 and 6.
2 μl of each 10 mM test compound is added to a separate well on row A, columns 1-10. Add 90 μl assay buffer containing 1 mM DTT and 2 nM cathepsin S to each well of rows B-H and 180 μl to row A. Mix row A using a multichannel pipette and double dilute to row G. Mix row H and read in the fluorescent spectrophotometer.
The second test compound is added to column 6 of the top row, the third to column 1 of the second row etc. Add 1 μL of comparator to column 6 of the bottom row. Mix column 1 and double dilute to column 5. Mix column 6 and double dilute to column 10. Using an 8-channel multistepping pipette set to 5×10 μL, distribute 10 μL/well of substrate to the 384 well assay plate. Distribute the first column of the substrate dilution plate to all columns of the assay plate starting at row A. The tip spacing of the multichannel pipette will correctly skip alternate rows. Distribute the second column to all columns starting at row B. Using a 12-channel multistepping pipette set to 4×10 μL, distribute 10 μL/well of inhibitor to the 384 well assay plate. Distribute the first row of the inhibitor dilution plate to alternate rows of the assay plate starting at A1. The tip spacing of the multichannel pipette will correctly skip alternate columns. Similarly, distribute the second, third and fourth rows to alternate rows and columns starting at A2, B1 and B2 respectively.
Mix 20 mL assay buffer and 20 μL 1M DTT. Add sufficient cathepsin S to give 2 nM final concentration.
Using the a distributor such as a Multidrop 384, add 30 μL/well to all wells of the assay plate and read in fluorescent spectrophotometer such as an Ascent.
Fluorescent readings, (excitation and emission wavelengths 390 nm and 460 nm respectively, set using bandpass filters) reflecting the extent of enzyme cleavage of the fluorescent substrate, […] the inhibitor, are linear rate fitted for each well.
Fitted rates for all wells for each inhibitor are fitted to the competitive inhibition equation using SigmaPlot 2000 to determine V, Km and Ki values.
(§1) Potential inhibitors are screened using the above assay with variable concentrations of test compound. Reactions were initiated by addition of enzyme to buffered solutions of substrate and inhibitor. Ki values were calculated according to equation 1.
(§2) [formula] where v0 is the velocity of the reaction, V is the maximal velocity, S is the concentration of substrate with Michaelis constant of KM, and I is the concentration of inhibitor.

human cathepsin L = human cathepsin L (Homo sapiens, UniProt P07711); assay: Cathepsin L Ki (H-D-Val-Leu-Lys-AMC substrate); format: biochemical; conditions: pH 5.5, read-out: Ki Cat. L
Sequence of human cathepsin L (P07711 114-333): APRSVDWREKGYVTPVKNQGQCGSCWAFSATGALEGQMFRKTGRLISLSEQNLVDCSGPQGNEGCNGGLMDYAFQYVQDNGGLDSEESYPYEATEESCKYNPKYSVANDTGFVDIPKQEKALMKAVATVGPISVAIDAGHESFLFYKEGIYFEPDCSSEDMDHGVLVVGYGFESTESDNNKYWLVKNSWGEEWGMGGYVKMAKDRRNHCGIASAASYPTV
Procedure: The procedure above with the following amendments is used for the determination of Ki for cathepsin L.
The enzyme is commercially available human cathepsin L (for example Calbiochem). The substrate is H-D-Val-Leu-Lys-AMC available from Bahcem. The assay buffer is 100 mM sodium acetate 1 mM EDTA, pH5.5) The DMSO stock (10 mM in 100% DMSO) is diluted to 10% in assay buffer. Enzyme is prepared at 5 nM concentration in assay buffer plus 1 mM dithiothreitol just before use. 2 μL of 10 mM inhibitor made up in 100% DMSO is dispensed into row A. 10 μL of 50 μM substrate (=1/200 dilution of 10 mM stock in DMSO, diluted in assay buffer).
as §1, §2

[1] = target: T2, human recombinant cathepsin K (Homo sapiens, UniProt P43235); assay: Determination of cathepsin K proteolytic catalytic activity (H-D-Ala-Leu-Lys-AMC substrate); format: biochemical; conditions: read-out: Ki Cat. K
T2 construct: made in house; host or cells: not fixed: E coli, Pichia or Baculovirus systems are named as options
T2 sequence (P43235 115-329): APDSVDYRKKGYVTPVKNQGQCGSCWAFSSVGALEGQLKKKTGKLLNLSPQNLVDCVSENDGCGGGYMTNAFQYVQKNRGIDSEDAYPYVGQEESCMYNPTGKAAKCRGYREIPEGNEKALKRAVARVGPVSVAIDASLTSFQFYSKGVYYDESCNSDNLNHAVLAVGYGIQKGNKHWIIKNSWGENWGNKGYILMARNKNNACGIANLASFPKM
Procedure: Determination of Cathepsin K Proteolytic Catalytic Activity
Convenient assays for cathepsin K are carried out using human recombinant enzyme, such as that described in PDB. • ID BC016058 standard; mRNA; HUM; 1699 BP. • DE Homo sapiens cathepsin K (pycnodysostosis), mRNA (cDNA clone MGC:23107 • RX MEDLINE; RX PUBMED; 12477932. • DR RZPD; IRALp962G1234. • DR SWISS-PROT; P43235;
The recombinant cathepsin K can be expressed in a variety of commercially available expression systems including E coli, Pichia and Baculovirus systems. The purified enzyme is activated by removal of the prosequence by conventional methods.
Standard assay conditions for the determination of kinetic constants used a fluorogenic peptide substrate, typically H-D-Ala-Leu-Lys-AMC, and were determined in either 100 mM Mes/Tris, pH 7.0 containing 1 mM EDTA and 10 mM 2-mercaptoethanol or 100 mMNa phosphate, imM EDTA, 0.1% PEG4000 pH 6.5 or 100 mM Na acetate, pH 5.5 containing 5 mM EDTA and 20 mM cysteine, in each case optionally with […] as stabiliser. The enzyme concentration used was 5 nM. The stock substrate solution was prepared at 10 mM in DMSO. Screens were carried out at a fixed substrate concentration of 60 μM and detailed kinetic studies with doubling dilutions of substrate from 250 μM. The total DMSO concentration in the assay was kept below 3%. All assays were conducted at ambient temperature. Product fluorescence (excitation at 390 nm, emission at 460 nm) was monitored with a Labsystems Fluoroskan Ascent fluorescent plate reader. Product progress curves were generated over 15 minutes following generation of AMC product.
as §1, §2

[2] = reference markers (passive transport, active transport, active efflux); cited from earlier work

T1 sequence (P25774 115-331): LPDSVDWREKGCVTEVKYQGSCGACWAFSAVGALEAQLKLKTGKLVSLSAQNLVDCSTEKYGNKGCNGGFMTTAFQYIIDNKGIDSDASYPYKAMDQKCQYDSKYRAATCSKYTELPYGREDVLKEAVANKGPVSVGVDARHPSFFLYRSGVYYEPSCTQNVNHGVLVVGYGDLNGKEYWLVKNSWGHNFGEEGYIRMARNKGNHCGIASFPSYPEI

Ki (human cathepsin S) [µM]	Ki (human cathepsin L) [µM]	Ki [1] [µM]	SMILES	absorption in man (%) [2] [%]
0.0008	3.9	0.85	CCC(=O)N[C@@H](CC1(C)CCCC1)C(=O)N[C@]1(C(=O)C(=O)Nc2ccn(C)n2)C[C@@H](F)C1 [Example A1, N-[3-Fluoro-1-(1-methyl-1H-pyrazol-3-ylaminooxalyl)-cyclobutyl]-3-(1-methyl-cyclopentyl)-2-propionylamino-propionamide]	–
0.00081	5.2	0.58	CC(=O)N[C@@H](CC1(C)CCCC1)C(=O)NC1(C(=O)C(=O)Nc2ccn(C)n2)CCC1 [Example A6]	–
0.0038	0.87	0.34	CC(=O)N[C@@H](CC1(C)CCC1)C(=O)NC1(C(=O)C(=O)Nc2ccn(C)n2)CC(F)(F)C1 [Example A13]	–
0.02	6.5	1.2	CC(=O)N[C@@H](CC(C)(C)C)C(=O)NC1(C(=O)C(=O)Nc2ccn(C)n2)CC(F)(F)C1 [Example A15]	–
0.01	33	12	COC1CC(NC(=O)[C@H](CC2(C)CCCC2)NC(C)=O)(C(=O)C(=O)NC2CC2)C1 (stereo partly drawn) [Example A16]	–
0.0056	25	7.4	COC1CC(NC(=O)[C@H](CC2(C)CCCC2)NC(=O)CCl)(C(=O)C(=O)NC2CC2)C1 (stereo partly drawn) [Example A19]	–
0.001	2.3	1.1	CC(C)C(=O)N[C@@H](CC1(C)CCCC1)C(=O)NC1(C(=O)C(=O)Nc2ccn(C)n2)CC(F)(F)C1 [Example A25]	–
0.001	3.3	0.72	CC(C)C(=O)NC(CC1(F)CCCC1)C(=O)NC1(C(=O)C(=O)Nc2ccn(C)n2)CC(F)C1 (stereo not drawn) [Example A30]	–
0.0018	1.2	0.34	COC1CC(NC(=O)[C@H](CC2(F)CCCC2)NC(=O)C(C)(C)C)(C(=O)C(=O)Nc2ccn(C)n2)C1 (stereo partly drawn) [Example A31]	–
0.003	0.38	1.1	Cn1ccc(NC(=O)C(=O)C2(NC(=O)[C@H](CC3(F)CCCC3)NC(=O)C(F)F)CC(F)(F)C2)n1 [Example A36]	–
0.003	1.8	0.64	[2H]C([2H])([2H])C(C(=O)N[C@@H](CC1(F)CCCC1)C(=O)NC1(C(=O)C(=O)Nc2ccn(C)n2)CC(F)(F)C1)(C([2H])([2H])[2H])C([2H])([2H])[2H] [Example A37]	–
0.0012	0.86	0.51	CCN(CC)C(=O)N[C@@H](CC1(C)CCCC1)C(=O)N[C@]1(C(=O)C(=O)Nc2ccn(C)n2)C[C@@H](F)C1 [Example U1, 2-(3,3-Diethyl-ureido)-N-[3-fluoro-1-(1-methyl-1H-pyrazol-3-ylaminooxalyl)-cyclobutyl]-3-(1-methyl-cyclopentyl)-propionamide]	–
0.0013	2.2	1.3	CC(C)NC(=O)N[C@@H](CC1(F)CCCC1)C(=O)N[C@]1(C(=O)C(=O)Nc2ccn(C)n2)C[C@@H](F)C1 [Example U2, 3-(1-Fluoro-cyclopentyl)-N-[3-fluoro-1-(1-methyl-1H-pyrazol-3-ylaminooxalyl)-cyclobutyl]-2-(3-isopropyl-ureido)-propionamide]	–
0.00063	2.1	0.62	CCNC(=O)N[C@@H](CC1(F)CCCC1)C(=O)NC1(C(=O)C(=O)Nc2ccn(C)n2)CCC1 [Example U4]	–
–	–	–	N[C@@H](Cc1ccccc1)C(=O)O [L-Phenylalanine]	100
–	–	–	OC[C@@H](O)[C@@H](O)[C@H](O)[C@H](O)CO [Mannitol]	16
–	–	–	CN(Cc1cnc2nc(N)nc(N)c2n1)c1ccc(C(=O)N[C@@H](CCC(=O)O)C(=O)O)cc1 [Methotrexate]	20
